Measured values reported in patent publication US20260285853A1, “COMPOUNDS AND METHODS FOR MODULATING SPLICING” (REMIX THERAPEUTICS INC., priority 2023, published 2026).
Read-outs that look alike come from different tables or passages of the source.

Assays:
Format in all cases: cell-based
HTT mRNA [1] = test: Splicing RT-qPCR assay (THP), Table 2A
MYB mRNA [2] = test: Splicing RT-qPCR assay (THP), Table 2A
HTT mRNA [3] = test: Gene panel canonical junction qPCR assay, decrease in CJ mRNA, Table 3
In short: (§1)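 Eleven-point dose responses from 10 uM final, 24 h, DMSO ≤0.25%, in A673 or K562 cells. Relative quantification by 2^(−ΔΔCt) against housekeeper and vehicle was converted to percent response over fixed ΔCt windows and fitted to yield IC50.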

MYB mRNA [4] = test: as above
In short: as §1

[5] = tested on: SH-SY5Y (human neuroblastoma) cells; test: Cell viability, Cell Titer Glo 2.0 assay; conditions: read-out: Viability SHSY5Y.3 GI50
In short: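 Following a 72 h incubation (37 °C, 5% CO2, 0.1% DMSO final), compound toxicity toward SH-SY5Y cells was quantified by CellTiter-Glo 2.0.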

[6] = Table 2A, THP, HTT alternative junction (AJ) mRNA, read-out: HTT AJ (AC50, increase in alternative junction mRNA)
[7] = Table 2A, THP, HTT canonical junction (CJ) mRNA, read-out: HTT CJ (IC50, decrease in canonical junction mRNA)
[8] = Table 2A, THP, MYB alternative junction (AJ) mRNA, read-out: MYB AJ (AC50, increase in alternative junction mRNA)
[9] = Table 2A, THP, MYB canonical junction (CJ) mRNA, read-out: MYB CJ (IC50, decrease in canonical junction mRNA)
[10] = decrease in CJ mRNA levels, canonical junction qPCR, gene panel
[11] = Table 2A (THP), AJ mRNA increase, read-out: HTT AJ (increase in alternative junction mRNA, AC50)
[12] = Table 2A (THP), CJ mRNA decrease, read-out: HTT CJ (decrease in canonical junction mRNA, IC50)
[13] = Table 2A (THP), AJ mRNA increase, read-out: MYB AJ (increase in alternative junction mRNA, AC50)
[14] = Table 2A (THP), CJ mRNA decrease, read-out: MYB CJ (decrease in canonical junction mRNA, IC50)
[15] = decrease in canonical junction (CJ) mRNA, gene panel qPCR, Table 3

| Compound | IC50 (HTT mRNA [1]; [7]) | IC50 (MYB mRNA [2]; [9]) | IC50 (HTT mRNA [3]; [10]) | IC50 (MYB mRNA [4]; [10]) | GI50 [5] | IC50 (HTT mRNA [1]; [12]) | IC50 (MYB mRNA [2]; [14]) | IC50 (HTT mRNA [3]; [15]) | IC50 (MYB mRNA [4]; [15]) | AC50 (HTT mRNA [1]; [6]) | AC50 (MYB mRNA [2]; [8]) | AC50 (HTT mRNA [1]; [11]) | AC50 (MYB mRNA [2]; [13]) |
| --- | --- | --- | --- | --- | --- | --- | --- | --- | --- | --- | --- | --- | --- |
| Cc1cn2cc(NC(=O)c3ccc(N4CCC(NC5CC5)CC4)c4cn(C)nc34)nc(CNS(C)(=O)=O)c2n1 [Compound 837, 4-[4-(cyclopropylamino)-1-piperidyl]-N-[8-(methanesulfonamidomethyl)-2-methyl-imidazo[1,2-a]pyrazin-6-yl]-2-methyl-indazole-7-carboxamide] | 1 to 10 µM | < 0.1 µM | 1 to 10 µM | < 0.1 µM | 0.1 to 1 µM | – | – | – | – | 1 to 10 µM | < 0.1 µM | – | – |
| COc1nc2c(C(=O)Nc3cc(CNS(C)(=O)=O)c4nn(C)cc4c3)ccc(N3CCC(NC4CC4)CC3)c2s1 [Compound 843] | > 10 µM | > 10 µM | > 10 µM | > 10 µM | > 10 µM | – | – | – | – | > 10 µM | > 10 µM | – | – |
| CCNC1CCN(c2cc(Cl)c(C(=O)Nc3cn4cc(C)nc(C)c4n3)c3nn(C)cc23)CC1 [Compound 348, 6-chloro-N-(6,8-dimethylimidazo-[1,2-a]pyrazin-2-yl)-4-[4-(ethylamino)-1-piperidyl]-2-methyl-indazole-7-carboxamide] | – | – | – | – | 1 to 10 µM | > 10 µM | 1 to 10 µM | > 10 µM | 1 to 10 µM | – | – | > 10 µM | 0.1 to 1 µM |
| COc1nc2c(C(=O)Nc3cc(F)c4nn(C)cc4c3)ccc(N3C[C@H](C)N(C)[C@@H](C)C3)c2s1 [Compound 767, N-(7-fluoro-2-methyl-indazol-5-yl)-2-methoxy-7-[(3S,5S)-3,4,5-trimethylpiperazin-1-yl]-1,3-benzothiazole-4-carboxamide] | 1 to 10 µM | < 0.1 µM | 1 to 10 µM | < 0.1 µM | 0.1 to 1 µM | – | – | – | – | 1 to 10 µM | < 0.1 µM | – | – |
| COc1c(NC(=O)c2ccc(N3CCC(NC4CC4)CC3)c3cn(C)nc23)cn2cc(C)nc(C)c12 [Compound 457, 4-[4-(cyclopropylamino)-1-piperidyl]-N-(8-methoxy-1,3-dimethyl-pyrrolo[1,2-a]pyrazin-7-yl)-2-methyl-indazole-7-carboxamide] | – | – | – | – | 1 to 10 µM | 1 to 10 µM | 1 to 10 µM | 1 to 10 µM | 1 to 10 µM | – | – | 1 to 10 µM | 1 to 10 µM |
| Cc1cn2cc(NC(=O)c3ccc(N4CCC(NC5CC5)CC4)c4cc(CO)nn34)nc2c(C)n1 [Compound 616, 4-[4-(cyclopropylamino)-1-piperidyl]-N-(6,8-dimethylimidazo[1,2-a]pyrazin-2-yl)-2-(hydroxymethyl) pyrazolo[1,5-a]-pyridine-7-carboxamide] | 1 to 10 µM | 1 to 10 µM | 1 to 10 µM | 1 to 10 µM | 1 to 10 µM | – | – | – | – | 1 to 10 µM | 1 to 10 µM | – | – |

More lines, main results first:

| IC50 (HTT mRNA [1]; [7]) | IC50 (MYB mRNA [2]; [9]) | IC50 (HTT mRNA [3]; [10]) | IC50 (MYB mRNA [4]; [10]) | GI50 [5] | IC50 (HTT mRNA [1]; [12]) | IC50 (MYB mRNA [2]; [14]) | IC50 (HTT mRNA [3]; [15]) | IC50 (MYB mRNA [4]; [15]) | Compound | AC50 (HTT mRNA [1]; [6]) | AC50 (MYB mRNA [2]; [8]) | AC50 (HTT mRNA [1]; [11]) | AC50 (MYB mRNA [2]; [13]) |
| --- | --- | --- | --- | --- | --- | --- | --- | --- | --- | --- | --- | --- | --- |
| – | – | – | – | 1 to 10 µM | > 10 µM | > 10 µM | > 10 µM | > 10 µM | COc1cc2nn(C)cc2cc1C#Cc1ccc(N2CCC(NC3CC3)CC2)c2cn(C)nc12 [Compound 437, N-cyclopropyl-1-[7-[2-(6-methoxy-2-methyl-indazol-5-yl)ethynyl]-2-methyl-indazol-4-yl]-piperidin-4-amine] | – | – | > 10 µM | > 10 µM |
| – | – | – | – | > 10 µM | > 10 µM | > 10 µM | > 10 µM | > 10 µM | CNC1CCN(c2ccc(NC(=O)c3cc4cn(C)nc4cc3OC)c3nn(C)cc23)CC1 [Compound 521, 6-methoxy-2-methyl-N-[2-methyl-4-[4-(methylamino)-1-piperidyl]indazol-7-yl]-indazole-5-carboxamide] | – | – | > 10 µM | > 10 µM |
| – | – | – | – | 1 to 10 µM | > 10 µM | 0.1 to 1 µM | > 10 µM | 0.1 to 1 µM | COc1cc2nn(C)cc2cc1NC(=O)c1c(Cl)cc(N2CCC(NC3CC3)CC2)c2cn(C)nc12 [Compound 436, 6-chloro-4-[4-(cyclopropylamino)-1-piperidyl]-N-(6-methoxy-2-methyl-indazol-5-yl)-2-methyl-indazole-7-carboxamide] | – | – | > 10 µM | 0.1 to 1 µM |
